In patent US20250032598A1, “Compounds, Pharmaceuticals, Formulations, and Methods for Treating and Preventing RNA Virus Infections and Associated Diseases” (ASAVI LLC, priority 2023, published 2025):
Where two headings read alike, the source gives them in different places.

Assays:
[1] = test system: SARS-CoV-2; assay type: in vivo, Syrian hamsters
[2] = test system: influenza; conditions: cited from earlier work
[3] = female Syrian hamsters, lung homogenates 96 hours after infection, 50,000 KIU/kg intravenously 2 times a day for 4 days, Lip-APR = composition 2
[4] = male Syrian hamsters, lung homogenates 96 hours after infection, 50,000 KIU/kg intravenously 2 times a day for 4 days, Lip-APR = composition 2
[5] = male and female Syrian hamsters pooled, lung homogenates, 10,000 KIU/ml, 50,000 KIU/kg intravenously

Substance: aprotinin
- Infectious titer lg (TCID50/mL) ± SD [1, 3]: 4.38±0.85 lg (TCID50/mL)
- Viral load Ct ± SD [1, 3]: 17.51±1.04 Ct
- Anti-SARS-CoV-2/COVID-19 efficacy (in words) ([1]; intravenous, 50,000 KIU/kg, versus untreated control): no antiviral activity
- Infectious titer lg (TCID50/mL) ± SD [1, 4]: 3.88±0.48 lg (TCID50/mL)
- Viral load Ct ± SD [1, 4]: 17.51±1.28 Ct
- Infectious titer lg (TCID50/mL) ± SD [1, 5]: 4.13±0.69 lg (TCID50/mL)
- Viral load Ct ± SD [1, 5]: 17.72±1.10 Ct
- Reduction in viral load compared with patients treated with Ingavirin ([2]; APR aerosol, patients): approximately 10 fold
- Side effects and discomfort ([2]; patients of the APR group): not identified
- Duration of clinical symptoms, shorter than in the Ingavirin group ([2]; rhinorrhea, weakness, headache, sore throat, cough, chest pain, fever): 1 to 2 days
